In the first assay the target is T1, opioid receptor delta (Homo sapiens, UniProt P41143).
T1 construct: expressed in transfected cells
T1 sequence (P41143 whole entry): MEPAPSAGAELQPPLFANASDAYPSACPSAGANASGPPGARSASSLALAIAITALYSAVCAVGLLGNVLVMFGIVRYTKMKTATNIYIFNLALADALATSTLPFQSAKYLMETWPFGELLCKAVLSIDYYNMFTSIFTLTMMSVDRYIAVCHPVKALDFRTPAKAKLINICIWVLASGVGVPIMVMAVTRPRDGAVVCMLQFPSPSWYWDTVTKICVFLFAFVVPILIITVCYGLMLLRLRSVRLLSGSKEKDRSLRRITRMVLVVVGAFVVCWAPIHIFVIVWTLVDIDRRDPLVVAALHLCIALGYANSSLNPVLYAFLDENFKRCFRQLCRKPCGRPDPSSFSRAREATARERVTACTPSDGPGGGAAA
The assay is described as follows: GTPγ[35S] binding assay, antagonism of BW-373U86. The class given is biochemical. To be noted: average Ki; antagonism of BW-373U86 (1 nM) at delta opioid receptor membranes; read-out: Delta functional Ki (GTPγ[35S] binding). Here is the method: (§1) Membranes were prepared from cells as described (Bass et al, 1996). GTPγ[5S] binding assays were performed in a 96 well FlashPlate™ format in duplicate using […] GTPγ[^35S] and 5 μg membrane per well in assay buffer composed of 50 mM Tris HCl, pH 7.4, 5 mM MgCl2, 1 mM EDTA, 100 mM NaCl, 30 μM GDP, 0.1% bovine serum albumin and the following protease inhibitors: 100 μg/ml bacitracin, 100 μg/ml benzamidine, 5 μg/ml aprotinin, 5 μg/ml leupeptin. The assay mix was then incubated at 30° C. with increasing concentrations of antagonist (10^−10 M to 10^−5 M) for 10 minutes and challenged with the agonists BW-373U86 (1 nM), dynorphin-A (10 nM), […] (1 μM) for opioid receptors delta, kappa, and mu, respectively. The assays were performed at 30° C. for one hour. The FlashPlates were then centrifuged at 2000×g for 10 minutes. Stimulation of GTPγ[^35S] binding was then quantified using a Wallac Microbeta and Ki calculations were done using Prism™ by Graphpad.
A general note: Binding of GTPγS marks nucleotide exchange on a G protein.
Turning to `Cc1cc(C(N)=O)ccc1-c1cc(F)c(CNCCC2CCOCC2)c(F)c1` [4B-50], the Ki worked out at 0.135 nM.

Staying with this assay, now noted: read-out: Delta functional (GTPγ[35S] binding Ki).
Regarding `CC(C)CCNCc1ccc(-c2ccc(C(N)=O)cc2)cc1` [4B-01], the Ki worked out at 14 nM.

On to `CC(C)CCNCc1ccc(-c2ccc(C(N)=O)cc2C(F)(F)F)cc1` [4B-02], for which the Ki was 15.4 nM.

With `Cc1cc(C(N)=O)ccc1-c1ccc(CNCc2ccccc2)cc1` [4B-03], the Ki stood at 4 nM.

As for `Cc1cc(C(N)=O)ccc1-c1ccc(CNCCC2CCOCC2)cc1` [4B-05], the Ki worked out at 0.893 nM.

For the compound `Cc1cc(C(N)=O)ccc1-c1ccc(CNCCOC(C)C)cc1` [4B-06], the Ki is 6.42 nM.

Regarding `Cc1cc(C(N)=O)ccc1-c1ccc(CNCCc2ccccc2)cc1` [4B-09], the Ki is 1.82 nM.

On to `Cc1cc(C(N)=O)ccc1-c1ccc(CNCc2cccc(Cl)c2)cc1` [4B-10], for which the Ki was 0.602 nM.

For `Cc1cc(C(N)=O)ccc1-c1ccc(CNCCC2CC2)cc1` [4B-11], the Ki was 7.05 nM.

On to `CC(C)CCNCc1ccc(-c2c(F)cc(C(N)=O)cc2F)cc1` [4B-12], for which the Ki came to 16.9 nM.

With `Cc1cc(C(N)=O)ccc1-c1ccc(CN2Cc3ccccc3C2)cc1` [4B-13], the Ki came out at 159 nM.

As for `Cc1cc(C(N)=O)cc(C)c1-c1ccc(CNCCC(C)C)cc1` [4B-14], the Ki came out at 6.27 nM.

Turning to `CC(C)CCNCc1ccc(-c2ccc(C(N)=O)c(F)c2)cc1` [4B-15], the Ki was 355 nM.

For `Cc1cc(C(N)=O)ccc1-c1ccc(CNCCOc2ccccc2)cc1` [4B-16], the Ki was determined as 0.751 nM.

As to `Cc1cc(C(N)=O)ccc1-c1ccc(CNCc2cccc(F)c2)cc1` [4B-17], the Ki amounted to 1.13 nM.

Take `Cc1cc(C(N)=O)ccc1-c1ccc(CNCc2ccc3c(c2)CC(C)(C)O3)cc1` [4B-18]: the Ki was found to be 2.46 nM.

With `Cc1cc(C(N)=O)ccc1-c1ccc(CNC(C)(C)c2ccccc2)cc1` [4B-19], the Ki was 19.5 nM.

Turning to `Cc1cc(C(N)=O)ccc1-c1ccc(CNCc2ccc3c(c2)CCO3)cc1` [4B-20], the Ki worked out at 4.21 nM.

In the case of `Cc1cc(C(N)=O)ccc1-c1ccc(CNC2CCc3ccccc32)cc1` (stereo not drawn) [4B-21], the Ki is 1.25 nM.

`Cc1cc(C(N)=O)ccc1-c1ccc(CNC2CCOc3c(C)cccc32)cc1` (stereo not drawn) [4B-22]: the Ki was found to be 5.1 nM.

Take `Cc1cc(C(N)=O)ccc1-c1ccc(CNC2(c3cccc(Cl)c3)CC2)cc1` [4B-23]: the Ki was determined as 46.3 nM.

As for `Cc1cc(C(N)=O)ccc1-c1ccc(CNC2(c3ccccc3)CC2)cc1` [4B-24], the Ki was determined as 22.7 nM.

Take `Cc1cc(C(N)=O)ccc1-c1ccc(CNC(C)(C)c2cccc(Cl)c2)cc1` [4B-25]: the Ki was determined as 22.6 nM.

The target in another assay is T2, opioid receptor mu (Homo sapiens, UniProt P35372).
T2 construct: expressed in transfected cells
T2 sequence (P35372 whole entry): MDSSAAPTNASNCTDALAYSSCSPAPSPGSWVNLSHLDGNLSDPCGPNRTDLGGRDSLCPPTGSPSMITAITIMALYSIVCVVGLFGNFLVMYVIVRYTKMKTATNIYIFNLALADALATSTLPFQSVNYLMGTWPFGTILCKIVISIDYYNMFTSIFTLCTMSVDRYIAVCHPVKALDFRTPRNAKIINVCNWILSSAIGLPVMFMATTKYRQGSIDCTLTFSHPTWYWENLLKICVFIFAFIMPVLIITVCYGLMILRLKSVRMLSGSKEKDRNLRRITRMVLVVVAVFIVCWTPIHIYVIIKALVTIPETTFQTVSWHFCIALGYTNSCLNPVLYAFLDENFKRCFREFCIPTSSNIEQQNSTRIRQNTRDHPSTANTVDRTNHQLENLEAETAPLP
The assay is described as follows: GTPγ[35S] binding assay, antagonism of endorphin. It is filed as biochemical. To be noted: average Ki; antagonism of endorphin (1 μM) at mu opioid receptor membranes; read-out: Mu functional Ki (GTPγ[35S] binding). Here is the method:
as §1
As to `Cc1cc(C(N)=O)ccc1-c1cc(F)c(CNCCC2CCOCC2)c(F)c1` [4B-50], the Ki came to 1.45 nM.

The assay is the same for the next values; noted with them: read-out: Mu functional (GTPγ[35S] binding Ki).
As to `CC(C)CCNCc1ccc(-c2ccc(C(N)=O)cc2)cc1` [4B-01], the Ki was 175 nM.

Regarding `CC(C)CCNCc1ccc(-c2ccc(C(N)=O)cc2C(F)(F)F)cc1` [4B-02], the Ki amounted to 57.2 nM.

Regarding `Cc1cc(C(N)=O)ccc1-c1ccc(CNCc2ccccc2)cc1` [4B-03], the Ki came out at 3.13 nM.

Regarding `Cc1cc(C(N)=O)ccc1-c1ccc(CNCCC2CCOCC2)cc1` [4B-05], the Ki came to 4.07 nM.

As for `Cc1cc(C(N)=O)ccc1-c1ccc(CNCCOC(C)C)cc1` [4B-06], the Ki stood at 10.3 nM.

`Cc1cc(C(N)=O)ccc1-c1ccc(CNCCc2ccccc2)cc1` [4B-09]: the Ki was found to be 2.73 nM.

Consider `Cc1cc(C(N)=O)ccc1-c1ccc(CNCc2cccc(Cl)c2)cc1` [4B-10], for which the Ki turned out to be 0.94 nM.

`Cc1cc(C(N)=O)ccc1-c1ccc(CNCCC2CC2)cc1` [4B-11]: the Ki was 8.38 nM.

As for `CC(C)CCNCc1ccc(-c2c(F)cc(C(N)=O)cc2F)cc1` [4B-12], the Ki was 48.4 nM.

As for `Cc1cc(C(N)=O)ccc1-c1ccc(CN2Cc3ccccc3C2)cc1` [4B-13], the Ki was 207 nM.

`Cc1cc(C(N)=O)cc(C)c1-c1ccc(CNCCC(C)C)cc1` [4B-14]: the Ki was 86.5 nM.

Turning to `CC(C)CCNCc1ccc(-c2ccc(C(N)=O)c(F)c2)cc1` [4B-15], the Ki is 295 nM.

Consider `Cc1cc(C(N)=O)ccc1-c1ccc(CNCCOc2ccccc2)cc1` [4B-16], for which the Ki came out at 2.82 nM.

On to `Cc1cc(C(N)=O)ccc1-c1ccc(CNCc2cccc(F)c2)cc1` [4B-17], for which the Ki was found to be 2.56 nM.

As for `Cc1cc(C(N)=O)ccc1-c1ccc(CNCc2ccc3c(c2)CC(C)(C)O3)cc1` [4B-18], the Ki was found to be 5.72 nM.

For `Cc1cc(C(N)=O)ccc1-c1ccc(CNC(C)(C)c2ccccc2)cc1` [4B-19], the Ki worked out at 126 nM.

For `Cc1cc(C(N)=O)ccc1-c1ccc(CNCc2ccc3c(c2)CCO3)cc1` [4B-20], the Ki was determined as 7.1 nM.

Take `Cc1cc(C(N)=O)ccc1-c1ccc(CNC2CCc3ccccc32)cc1` (stereo not drawn) [4B-21]: the Ki stood at 1.5 nM.

Take `Cc1cc(C(N)=O)ccc1-c1ccc(CNC2CCOc3c(C)cccc32)cc1` (stereo not drawn) [4B-22]: the Ki was 7.56 nM.

Take `Cc1cc(C(N)=O)ccc1-c1ccc(CNC2(c3cccc(Cl)c3)CC2)cc1` [4B-23]: the Ki came out at 266 nM.

With `Cc1cc(C(N)=O)ccc1-c1ccc(CNC2(c3ccccc3)CC2)cc1` [4B-24], the Ki is 1290 nM.

`Cc1cc(C(N)=O)ccc1-c1ccc(CNC(C)(C)c2cccc(Cl)c2)cc1` [4B-25]: the Ki amounted to 37.6 nM.

For the next assay, the target named is T3, opioid receptor kappa (Homo sapiens, UniProt P41145).
T3 construct: expressed in transfected cells
T3 sequence (P41145 whole entry): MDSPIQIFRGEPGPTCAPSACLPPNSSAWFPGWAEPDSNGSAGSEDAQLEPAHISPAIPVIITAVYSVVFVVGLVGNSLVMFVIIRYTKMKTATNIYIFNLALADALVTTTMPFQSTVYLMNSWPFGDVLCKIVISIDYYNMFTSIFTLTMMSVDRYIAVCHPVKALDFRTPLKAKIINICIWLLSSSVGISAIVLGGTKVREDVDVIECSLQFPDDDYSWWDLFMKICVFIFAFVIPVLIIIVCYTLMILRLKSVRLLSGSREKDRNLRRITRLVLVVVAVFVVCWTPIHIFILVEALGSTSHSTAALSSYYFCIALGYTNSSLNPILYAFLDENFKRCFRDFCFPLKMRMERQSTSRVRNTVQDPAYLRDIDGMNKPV
The assay can be described thus: GTPγ[35S] binding assay, antagonism of dynorphin-A. It is filed as biochemical. To be noted: average Ki; antagonism of dynorphin-A (10 nM) at kappa opioid receptor membranes; read-out: Kappa functional Ki (GTPγ[35S] binding). Here is the method:
as §1
With `Cc1cc(C(N)=O)ccc1-c1cc(F)c(CNCCC2CCOCC2)c(F)c1` [4B-50], the Ki was 0.948 nM.

The assay is the same for the next values; noted with them: read-out: Kappa functional (GTPγ[35S] binding Ki).
Take `CC(C)CCNCc1ccc(-c2ccc(C(N)=O)cc2)cc1` [4B-01]: the Ki worked out at 88.6 nM.

For the compound `CC(C)CCNCc1ccc(-c2ccc(C(N)=O)cc2C(F)(F)F)cc1` [4B-02], the Ki was determined as 29.7 nM.

For `Cc1cc(C(N)=O)ccc1-c1ccc(CNCc2ccccc2)cc1` [4B-03], the Ki was 1.84 nM.

With `Cc1cc(C(N)=O)ccc1-c1ccc(CNCCC2CCOCC2)cc1` [4B-05], the Ki was 3.39 nM.

Turning to `Cc1cc(C(N)=O)ccc1-c1ccc(CNCCOC(C)C)cc1` [4B-06], the Ki is 8.53 nM.

With `Cc1cc(C(N)=O)ccc1-c1ccc(CNCCc2ccccc2)cc1` [4B-09], the Ki is 6.19 nM.

In the case of `Cc1cc(C(N)=O)ccc1-c1ccc(CNCc2cccc(Cl)c2)cc1` [4B-10], the Ki stood at 1.58 nM.

As to `Cc1cc(C(N)=O)ccc1-c1ccc(CNCCC2CC2)cc1` [4B-11], the Ki was determined as 5.7 nM.

Turning to `CC(C)CCNCc1ccc(-c2c(F)cc(C(N)=O)cc2F)cc1` [4B-12], the Ki amounted to 26.8 nM.

`Cc1cc(C(N)=O)ccc1-c1ccc(CN2Cc3ccccc3C2)cc1` [4B-13]: the Ki came to 33 nM.

With `Cc1cc(C(N)=O)cc(C)c1-c1ccc(CNCCC(C)C)cc1` [4B-14], the Ki was determined as 29.6 nM.

Regarding `CC(C)CCNCc1ccc(-c2ccc(C(N)=O)c(F)c2)cc1` [4B-15], the Ki was 278 nM.

In the case of `Cc1cc(C(N)=O)ccc1-c1ccc(CNCCOc2ccccc2)cc1` [4B-16], the Ki worked out at 7.65 nM.

With `Cc1cc(C(N)=O)ccc1-c1ccc(CNCc2cccc(F)c2)cc1` [4B-17], the Ki was determined as 1.21 nM.

Consider `Cc1cc(C(N)=O)ccc1-c1ccc(CNCc2ccc3c(c2)CC(C)(C)O3)cc1` [4B-18], for which the Ki amounted to 18.7 nM.

In the case of `Cc1cc(C(N)=O)ccc1-c1ccc(CNC(C)(C)c2ccccc2)cc1` [4B-19], the Ki amounted to 23.4 nM.

For `Cc1cc(C(N)=O)ccc1-c1ccc(CNCc2ccc3c(c2)CCO3)cc1` [4B-20], the Ki came out at 34.5 nM.

Regarding `Cc1cc(C(N)=O)ccc1-c1ccc(CNC2CCc3ccccc32)cc1` (stereo not drawn) [4B-21], the Ki came to 0.872 nM.

`Cc1cc(C(N)=O)ccc1-c1ccc(CNC2CCOc3c(C)cccc32)cc1` (stereo not drawn) [4B-22]: the Ki stood at 4.92 nM.

In the case of `Cc1cc(C(N)=O)ccc1-c1ccc(CNC2(c3cccc(Cl)c3)CC2)cc1` [4B-23], the Ki was 14.2 nM.

Take `Cc1cc(C(N)=O)ccc1-c1ccc(CNC2(c3ccccc3)CC2)cc1` [4B-24]: the Ki came out at 400 nM.

On to `Cc1cc(C(N)=O)ccc1-c1ccc(CNC(C)(C)c2cccc(Cl)c2)cc1` [4B-25], for which the Ki stood at 6.11 nM.
